Results from US8642609B2, “Modulators of ATP-binding cassette transporters” (Vertex Pharmaceuticals Incorporated, priority 2003, dated 2014).

Molecular target: T1, ΔF508-CFTR (Homo sapiens, UniProt P13569, DEL508-508)
T1 construct: expressed in transfected cells
Assay: Membrane potential optical assay (FRET/VIPR), identification of correction compounds
Type: cell-based
Procedure, shortened: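 NIH3T3 cells stably expressing ΔF508-CFTR incubated 16 hrs at 37° C in serum-free medium with test compound; 27° C incubation as positive control. CFTR then activated with 10 μM forskolin plus 20 μM genistein in Cl^−-free medium; depolarization read by DiSBAC2(3)/CC2-DMPE FRET on VIPR.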

T1 sequence (P13569 with tags, fused parts or gaps DEL508-508): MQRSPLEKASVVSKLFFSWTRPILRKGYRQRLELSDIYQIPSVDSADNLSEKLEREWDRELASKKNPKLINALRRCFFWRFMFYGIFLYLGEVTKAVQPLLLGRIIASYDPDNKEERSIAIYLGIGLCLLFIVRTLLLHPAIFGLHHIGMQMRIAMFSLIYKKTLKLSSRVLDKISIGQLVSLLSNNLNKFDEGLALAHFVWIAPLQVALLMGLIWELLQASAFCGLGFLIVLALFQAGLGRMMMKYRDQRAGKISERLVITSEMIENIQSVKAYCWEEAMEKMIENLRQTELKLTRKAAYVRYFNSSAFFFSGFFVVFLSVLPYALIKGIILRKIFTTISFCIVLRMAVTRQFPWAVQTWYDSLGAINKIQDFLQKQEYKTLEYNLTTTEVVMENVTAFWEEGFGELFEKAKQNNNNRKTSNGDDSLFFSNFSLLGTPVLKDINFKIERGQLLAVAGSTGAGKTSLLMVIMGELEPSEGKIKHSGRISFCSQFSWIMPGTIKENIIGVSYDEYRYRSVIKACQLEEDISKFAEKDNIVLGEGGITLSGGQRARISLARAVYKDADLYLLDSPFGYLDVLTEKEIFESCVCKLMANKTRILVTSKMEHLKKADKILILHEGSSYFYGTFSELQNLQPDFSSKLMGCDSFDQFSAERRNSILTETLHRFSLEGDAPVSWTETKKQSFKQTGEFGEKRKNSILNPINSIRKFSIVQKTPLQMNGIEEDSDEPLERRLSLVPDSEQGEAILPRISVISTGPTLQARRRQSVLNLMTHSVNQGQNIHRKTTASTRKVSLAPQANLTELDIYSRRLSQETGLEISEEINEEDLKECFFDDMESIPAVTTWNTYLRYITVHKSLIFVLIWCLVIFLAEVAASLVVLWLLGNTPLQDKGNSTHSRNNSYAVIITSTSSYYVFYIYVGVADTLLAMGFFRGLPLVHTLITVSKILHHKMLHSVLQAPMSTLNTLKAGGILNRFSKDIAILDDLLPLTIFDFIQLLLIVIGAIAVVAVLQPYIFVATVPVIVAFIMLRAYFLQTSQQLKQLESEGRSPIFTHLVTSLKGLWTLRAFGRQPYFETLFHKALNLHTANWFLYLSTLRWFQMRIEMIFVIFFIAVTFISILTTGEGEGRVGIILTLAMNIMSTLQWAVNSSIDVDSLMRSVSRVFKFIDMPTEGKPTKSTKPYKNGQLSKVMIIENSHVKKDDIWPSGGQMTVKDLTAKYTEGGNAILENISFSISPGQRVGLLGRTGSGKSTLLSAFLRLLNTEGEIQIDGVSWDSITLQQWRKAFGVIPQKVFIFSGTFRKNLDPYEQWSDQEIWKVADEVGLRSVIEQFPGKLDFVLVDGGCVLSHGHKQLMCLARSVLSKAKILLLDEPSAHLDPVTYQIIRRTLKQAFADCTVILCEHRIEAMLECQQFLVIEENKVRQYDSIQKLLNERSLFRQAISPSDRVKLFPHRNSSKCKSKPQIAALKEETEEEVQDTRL

SMILES	EC50 [µM]	Emax (relative efficacy) [%]	% Efficacy (relative efficacy)
CC(c1nc2ccccc2c(=O)n1C)N1CCC(NS(=O)(=O)c2ccc(Cl)cc2)C1 (centres unmarked) [compound 162]	25 to 60	< 25	
CC(c1nc2ccccc2c(=O)n1C)N1CCC(NS(=O)(=O)c2ccc(Br)cc2)C1 (centres unmarked) [compound 163]	25 to 60	< 25	
COc1ccc(S(=O)(=O)NC2CCN(C(C)c3nc4ccccc4c(=O)n3C)CC2)cc1 (centres unmarked) [compound 164]	25 to 60	25 to 100	
CC(c1nc2ccccc2c(=O)n1C)N1CCC(NS(=O)(=O)c2ccc(Cl)cc2)CC1 (centres unmarked) [compound 165]	< 10	25 to 100	
CC(c1nc2ccccc2c(=O)n1C)N1CCC(NS(=O)(=O)c2ccc(Br)cc2)CC1 (centres unmarked) [compound 166]	< 10	25 to 100	
COc1ccc(S(=O)(=O)NCCNC(C)c2nc3ccccc3c(=O)n2C)cc1 (centres unmarked) [compound 167]	25 to 60	< 25	
CC(NCCNS(=O)(=O)c1ccc(Cl)cc1)c1nc2ccccc2c(=O)n1C (centres unmarked) [compound 168]	25 to 60	< 25	
CC(NCCNS(=O)(=O)c1ccc(Br)cc1)c1nc2ccccc2c(=O)n1C (centres unmarked) [compound 169]	25 to 60	25 to 100	
COc1ccc(S(=O)(=O)N2CCCN(C(C)c3nc4ccccc4c(=O)n3C)CC2)cc1 (centres unmarked) [compound 170]	25 to 60	25 to 100	
CC(c1nc2ccccc2c(=O)n1C)N1CCCN(S(=O)(=O)c2ccc(Cl)cc2)CC1 (centres unmarked) [compound 171]	10 to 25	25 to 100	
CC(c1nc2ccccc2c(=O)n1C)N1CCCN(S(=O)(=O)c2ccc(Br)cc2)CC1 (centres unmarked) [compound 172]	< 10	25 to 100	
CC(NCCCNS(=O)(=O)c1ccc(Cl)cc1)c1nc2ccccc2c(=O)n1C (centres unmarked) [compound 173]	25 to 60	25 to 100	
CC(NCCCNS(=O)(=O)c1ccc(Br)cc1)c1nc2ccccc2c(=O)n1C (centres unmarked) [compound 174]	25 to 60	25 to 100	
COc1ccc(S(=O)(=O)N2CC3CC2CN3C(C)c2nc3ccccc3c(=O)n2C)cc1 (centres unmarked) [compound 175]	25 to 60	< 25	
CC(c1nc2ccccc2c(=O)n1C)N1CC2CC1CN2S(=O)(=O)c1ccc(Cl)cc1 (centres unmarked) [compound 176]	25 to 60	25 to 100	
CC(c1nc2ccccc2c(=O)n1C)N1CC2CC1CN2S(=O)(=O)c1ccc(Br)cc1 (centres unmarked) [compound 177]	25 to 60	25 to 100	

SMILES	EC50 [µM]	Emax (relative efficacy) [%]	% Efficacy (relative efficacy)
CC(c1nc2ccccc2c(=O)n1C)N1CCC(N)C1 (centres unmarked) [compound 178]	25 to 60	< 25	
CC(NC1CCNCC1)c1nc2ccccc2c(=O)n1C (centres unmarked) [compound 179]	25 to 60	< 25	
CC(c1nc2ccccc2c(=O)n1C)N1CCC(N)CC1 (centres unmarked) [compound 180]	25 to 60	< 25	
CC(NCCN)c1nc2ccccc2c(=O)n1C (centres unmarked) [compound 181]	25 to 60	< 25	
CNCCNC(C)c1nc2ccccc2c(=O)n1C (centres unmarked) [compound 182]	25 to 60	< 25	
CC(NCC1CCCCN1)c1nc2ccccc2c(=O)n1C (centres unmarked) [compound 183]		< 25	
CC(NC[C@@H]1CCCCN1)c1nc2ccccc2c(=O)n1C (some centres unmarked) [compound 183]	25 to 60		
CC(c1nc2ccccc2c(=O)n1C)N1CCCNCC1 (centres unmarked) [compound 184]	25 to 60	< 25	
CC(NCCCN)c1nc2ccccc2c(=O)n1C (centres unmarked) [compound 185]	25 to 60	< 25	
CC(c1nc2ccccc2c(=O)n1C)N1CC2CC1CN2 (centres unmarked) [compound 186]	25 to 60	< 25	
COc1ccc(S(=O)(=O)N2CCN(C(C)c3nc(OC)c4ccccc4n3)CC2)cc1 (centres unmarked) [compound 187]	25 to 60	25 to 100	
CCOc1nc(C(C)N2CCN(S(=O)(=O)c3ccc(OC)cc3)CC2)nc2ccccc12 (centres unmarked) [compound 188]	10 to 25	> 100	
CCCOc1nc(C(C)N2CCN(S(=O)(=O)c3ccc(OC)cc3)CC2)nc2ccccc12 (centres unmarked) [compound 189]	10 to 25	> 100	
COc1ccc(S(=O)(=O)N2CCN(C(C)c3nc(OC(C)C)c4ccccc4n3)CC2)cc1 (centres unmarked) [compound 190]	< 10	> 100	
COc1ccc(S(=O)(=O)N2CCN(C(C)c3nc(OC4CCCC4)c4ccccc4n3)CC2)cc1 (centres unmarked) [compound 191]	< 10		+++ (“+++” means >100%)
CNc1nc(C(C)N2CCN(S(=O)(=O)c3ccc(OC)cc3)CC2)nc2ccccc12 (centres unmarked) [compound 192]	25 to 60	25 to 100	

The remaining lines, values ahead:

EC50 [µM]	Emax (relative efficacy) [%]	% Efficacy (relative efficacy)	SMILES
25 to 60	25 to 100		COc1ccc(S(=O)(=O)N2CCN(C(C)c3nc(N(C)C)c4ccccc4n3)CC2)cc1 (centres unmarked) [compound 193]
25 to 60	25 to 100		CCNc1nc(C(C)N2CCN(S(=O)(=O)c3ccc(OC)cc3)CC2)nc2ccccc12 (centres unmarked) [compound 194]
10 to 25	25 to 100		CCN(CC)c1nc(C(C)N2CCN(S(=O)(=O)c3ccc(OC)cc3)CC2)nc2ccccc12 (centres unmarked) [compound 195]
25 to 60	25 to 100		COc1ccc(S(=O)(=O)N2CCN(C(C)c3nc(N4CCOCC4)c4ccccc4n3)CC2)cc1 (centres unmarked) [compound 196]
25 to 60	25 to 100		COc1ccc(S(=O)(=O)NCCN(C(C)c2nc3ccccc3c(=O)n2C)S(=O)(=O)c2ccc(OC)cc2)cc1 (centres unmarked) [compound 197]
25 to 60	< 25		CC(c1nc2ccccc2c(=O)n1C)N(CCNS(=O)(=O)c1ccc(Cl)cc1)S(=O)(=O)c1ccc(Cl)cc1 (centres unmarked) [compound 198]
25 to 60	< 25		CC(c1nc2ccccc2c(=O)n1C)N(CCNS(=O)(=O)c1ccc(Br)cc1)S(=O)(=O)c1ccc(Br)cc1 (centres unmarked) [compound 199]
25 to 60	< 25		COc1ccc(S(=O)(=O)N(C)CCN(C(C)c2nc3ccccc3c(=O)n2C)S(=O)(=O)c2ccc(OC)cc2)cc1 (centres unmarked) [compound 200]
25 to 60	< 25		CC(c1nc2ccccc2c(=O)n1C)N(CCN(C)S(=O)(=O)c1ccc(Cl)cc1)S(=O)(=O)c1ccc(Cl)cc1 (centres unmarked) [compound 201]
25 to 60	< 25		CC(c1nc2ccccc2c(=O)n1C)N(CCN(C)S(=O)(=O)c1ccc(Br)cc1)S(=O)(=O)c1ccc(Br)cc1 (centres unmarked) [compound 202]
25 to 60	< 25		COc1ccc(S(=O)(=O)N(C[C@@H]2CCCCN2S(=O)(=O)c2ccc(OC)cc2)C(C)c2nc3ccccc3c(=O)n2C)cc1 (some centres unmarked) [compound 203]
25 to 60	< 25		CC(c1nc2ccccc2c(=O)n1C)N(C[C@@H]1CCCCN1S(=O)(=O)c1ccc(Br)cc1)S(=O)(=O)c1ccc(Br)cc1 (some centres unmarked) [compound 204]
25 to 60	< 25		COc1ccc(S(=O)(=O)NCCCN(C(C)c2nc3ccccc3c(=O)n2C)S(=O)(=O)c2ccc(OC)cc2)cc1 (centres unmarked) [compound 205]
25 to 60	< 25		CC(c1nc2ccccc2c(=O)n1C)N(CCCNS(=O)(=O)c1ccc(Cl)cc1)S(=O)(=O)c1ccc(Cl)cc1 (centres unmarked) [compound 206]
< 10	25 to 100		CC(c1nc2ccccc2c(=O)n1C)N(CCCNS(=O)(=O)c1ccc(Br)cc1)S(=O)(=O)c1ccc(Br)cc1 (centres unmarked) [compound 207]
25 to 60	25 to 100		COc1ccc(S(=O)(=O)N2CCC(NC(C)c3nc4ccccc4c(=O)n3C)CC2)cc1 (centres unmarked) [compound 208]
10 to 25	25 to 100		CC(NC1CCN(S(=O)(=O)c2ccc(Cl)cc2)CC1)c1nc2ccccc2c(=O)n1C (centres unmarked) [compound 209]

EC50 [µM]	Emax (relative efficacy) [%]	% Efficacy (relative efficacy)	SMILES
< 10	> 100		CC(NC1CCN(S(=O)(=O)c2ccc(Br)cc2)CC1)c1nc2ccccc2c(=O)n1C (centres unmarked) [compound 210]
25 to 60	< 25		COc1ccc(S(=O)(=O)N(C)CCNC(C)c2nc3ccccc3c(=O)n2C)cc1 (centres unmarked) [compound 211]
25 to 60	< 25		CC(NCCN(C)S(=O)(=O)c1ccc(Cl)cc1)c1nc2ccccc2c(=O)n1C (centres unmarked) [compound 212]
25 to 60	< 25		CC(NCCN(C)S(=O)(=O)c1ccc(Br)cc1)c1nc2ccccc2c(=O)n1C (centres unmarked) [compound 213]
25 to 60	< 25		CC(NC[C@@H]1CCCCN1S(=O)(=O)c1ccc(Cl)cc1)c1nc2ccccc2c(=O)n1C (some centres unmarked) [compound 214]
25 to 60	< 25		CC(NC[C@@H]1CCCCN1S(=O)(=O)c1ccc(Br)cc1)c1nc2ccccc2c(=O)n1C (some centres unmarked) [compound 215]
< 10	> 100		CCCOc1nc(C(C)N2CCN(S(=O)(=O)c3ccc(Br)cc3)CC2)nc2ccccc12 (centres unmarked) [compound 216]
< 10	> 100		CC(C)Oc1nc(C(C)N2CCN(S(=O)(=O)c3ccc(Br)cc3)CC2)nc2ccccc12 (centres unmarked) [compound 217]
< 10	> 100		CC(c1nc(OC2CCCC2)c2ccccc2n1)N1CCN(S(=O)(=O)c2ccc(Br)cc2)CC1 (centres unmarked) [compound 218]
25 to 60	25 to 100		CNc1nc(C(C)N2CCN(S(=O)(=O)c3ccc(Br)cc3)CC2)nc2ccccc12 (centres unmarked) [compound 219]
25 to 60	> 100		CC(c1nc(N(C)C)c2ccccc2n1)N1CCN(S(=O)(=O)c2ccc(Br)cc2)CC1 (centres unmarked) [compound 220]
25 to 60	25 to 100		CCNc1nc(C(C)N2CCN(S(=O)(=O)c3ccc(Br)cc3)CC2)nc2ccccc12 (centres unmarked) [compound 221]
< 10	25 to 100		CCN(CC)c1nc(C(C)N2CCN(S(=O)(=O)c3ccc(Br)cc3)CC2)nc2ccccc12 (centres unmarked) [compound 222]
10 to 25	> 100		CC(c1nc(N2CCOCC2)c2ccccc2n1)N1CCN(S(=O)(=O)c2ccc(Br)cc2)CC1 (centres unmarked) [compound 223]
25 to 60	< 25		COc1ccc(S(=O)(=O)N2CCC(NC(C)c3nc4ccccc4c(=O)n3C)C2)cc1 (centres unmarked) [compound 224]
25 to 60	< 25		CC(NC1CCN(S(=O)(=O)c2ccc(Cl)cc2)C1)c1nc2ccccc2c(=O)n1C (centres unmarked) [compound 225]
